The values that follow are results of earlier work, collected in patent publication US8668905B2 (priority 2005, dated 2014).

The series relates to drug-resistant SCLC.

`CC(=O)O[C@H]1C(=O)[C@@]2(C)[C@H]([C@H](OC(=O)c3ccccc3)[C@]3(O)C[C@H](OC(=O)[C@H](O)[C@@H](NC(=O)c4ccccc4)c4ccccc4)C(C)=C1C3(C)C)[C@]1(OC(C)=O)CO[C@@H]1C[C@@H]2O` [Taxol, Paclitaxel]: for the setting “(Smit, 1998)”, the life-threatening toxicity is given as 20 % of patients. Further, the median survival (drug-resistant SCLC patients (Smit, 1998)) is on record as 100 days.
